{"source": "the supplement of paper PMC10331698", "assay_in_all_cases": "level (log10 ratio to DMSO vehicle control); higher = higher biomarker level / cell amount than vehicle control", "conditions_in_all_cases": "in DMSO", "key": {"[1]": {"compound": "OCC(F)(F)C(F)(F)C(F)(F)C(F)(F)C(F)(F)C(F)F [1H,1H,7H-Dodecafluoro-1-heptanol]", "procedure": "(§1)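 BioMAP Diversity Plus panel of 12 human primary cell co-culture systems (3C, 4H, LPS, SAg, BT, BF4T, BE3C, CASM3C, HDF3CGF, KF3CT, MyoF, Mphg). Compounds were added 1 h before stimulation and left for 24 h (MyoF 48 h; BT 72 h for soluble read-outs or 6 d for IgG). Biomarkers were read by ELISA, cytotoxicity by SRB, PBMC viability and proliferation by Alamar Blue. Each well value was divided by the mean of 8 DMSO control wells on the same plate and log10 transformed; duplicate blinded samples were tested at 4 concentrations.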"}, "[2]": {"compound": "O=C(O)CCC(F)(F)C(F)(F)C(F)(F)F [3:3 Fluorotelomer carboxylic acid]", "procedure": "as §1"}, "[3]": {"compound": "FC(F)(F)C(F)(F)C(F)(F)C(F)(F)C(F)(F)C(F)(F)C(F)(F)CCI [1-Iodo-1H,1H,2H,2H-perfluorononane]", "procedure": "as §1"}}, "note": "± gives the standard deviation of the averaged measurements.", "data": [{"test system": "MyoF:Collagen IV", "values": [{"measurement": "level (log10)", "setting": "[1]; 6700 nM", "value": "-0.0115 ± 0.015"}, {"measurement": "level (log10)", "setting": "[1]; 20000 nM", "value": "-0.0025 ± 0.018"}, {"measurement": "level (log10)", "setting": "[1]; 60000 nM", "value": "0.011 ± 0.025"}, {"measurement": "level (log10)", "setting": "[2]; 6700 nM", "value": "-0.0275 ± 0.042"}, {"measurement": "level (log10)", "setting": "[2]; 20000 nM", "value": "-0.029 ± 0.031"}, {"measurement": "level (log10)", "setting": "[2]; 60000 nM", "value": "-0.004 ± 0.035"}, {"measurement": "level (log10)", "setting": "[3]; 6700 nM", "value": "0.027 ± 0.0042"}, {"measurement": "level (log10)", "setting": "[3]; 20000 nM", "value": "0.082 ± 0.018"}]}, {"test system": "CASM3C:CD142/Tissue Factor", "values": [{"measurement": "level (log10)", "setting": "[1]; 6700 nM", "value": "0.0235 ± 0.043"}, {"measurement": "level (log10)", "setting": "[1]; 20000 nM", "value": "0.0015 ± 0.0064"}, {"measurement": "level (log10)", "setting": "[1]; 60000 nM", "value": "-0.0185 ± 0.0035"}, {"measurement": "level (log10)", "setting": "[2]; 6700 nM", "value": "0.0015 ± 0.012"}, {"measurement": "level (log10)", "setting": "[2]; 20000 nM", "value": "-0.0015 ± 0.013"}, {"measurement": "level (log10)", "setting": "[2]; 60000 nM", "value": "-0.0305 ± 0.054"}, {"measurement": "level (log10)", "setting": "[3]; 6700 nM", "value": "0.0155 ± 0.049"}, {"measurement": "level (log10)", "setting": "[3]; 20000 nM", "value": "-0.055 ± 0.0028"}]}, {"test system": "CASM3C:CD141/Thrombomodulin", "values": [{"measurement": "level (log10)", "setting": "[1]; 6700 nM", "value": "0.0095 ± 0.052"}, {"measurement": "level (log10)", "setting": "[1]; 20000 nM", "value": "0.0055 ± 0.0064"}, {"measurement": "level (log10)", "setting": "[1]; 60000 nM", "value": "-0.0055 ± 0.047"}, {"measurement": "level (log10)", "setting": "[2]; 6700 nM", "value": "-0.0065 ± 0.005"}, {"measurement": "level (log10)", "setting": "[2]; 20000 nM", "value": "-0.0085 ± 0.011"}, {"measurement": "level (log10)", "setting": "[2]; 60000 nM", "value": "-0.0185 ± 0.0035"}, {"measurement": "level (log10)", "setting": "[3]; 6700 nM", "value": "0.0135 ± 0.0035"}, {"measurement": "level (log10)", "setting": "[3]; 20000 nM", "value": "0.0065 ± 0.03"}]}, {"test system": "lMphg:SRB", "values": [{"measurement": "level (log10)", "setting": "[1]; 6700 nM", "value": "-0.018 ± 0.028"}, {"measurement": "level (log10)", "setting": "[1]; 20000 nM", "value": "0.0015 ± 0.005"}, {"measurement": "level (log10)", "setting": "[1]; 60000 nM", "value": "-0.0025 ± 0.00071"}, {"measurement": "level (log10)", "setting": "[2]; 6700 nM", "value": "-0.0305 ± 0.026"}, {"measurement": "level (log10)", "setting": "[2]; 20000 nM", "value": "-0.0105 ± 0.021"}, {"measurement": "level (log10)", "setting": "[2]; 60000 nM", "value": "-0.013 ± 0.0042"}, {"measurement": "level (log10)", "setting": "[3]; 6700 nM", "value": "-0.002 ± 0.0071"}, {"measurement": "level (log10)", "setting": "[3]; 20000 nM", "value": "0.0065 ± 0.005"}]}, {"test system": "KF3CT:CXCL8/IL-8", "values": [{"measurement": "level (log10)", "setting": "[1]; 6700 nM", "value": "0.017 ± 0.0028"}, {"measurement": "level (log10)", "setting": "[1]; 20000 nM", "value": "0.01 ± 0.025"}, {"measurement": "level (log10)", "setting": "[1]; 60000 nM", "value": "0.0165 ± 0.016"}, {"measurement": "level (log10)", "setting": "[2]; 6700 nM", "value": "0.0005 ± 0.022"}, {"measurement": "level (log10)", "setting": "[2]; 20000 nM", "value": "-0.0035 ± 0.0092"}, {"measurement": "level (log10)", "setting": "[2]; 60000 nM", "value": "-0.0005 ± 0.0064"}, {"measurement": "level (log10)", "setting": "[3]; 6700 nM", "value": "0.013 ± 0.0071"}, {"measurement": "level (log10)", "setting": "[3]; 20000 nM", "value": "0.0605 ± 0.0092"}]}, {"test system": "lMphg:CCL3/MIP-1alpha", "values": [{"measurement": "level (log10)", "setting": "[1]; 6700 nM", "value": "0.0185 ± 0.063"}, {"measurement": "level (log10)", "setting": "[1]; 20000 nM", "value": "0.0115 ± 0.019"}, {"measurement": "level (log10)", "setting": "[1]; 60000 nM", "value": "0.044 ± 0.0085"}, {"measurement": "level (log10)", "setting": "[2]; 6700 nM", "value": "-0.0105 ± 0.047"}, {"measurement": "level (log10)", "setting": "[2]; 20000 nM", "value": "-0.027 ± 0.047"}, {"measurement": "level (log10)", "setting": "[2]; 60000 nM", "value": "0.002 ± 0.02"}, {"measurement": "level (log10)", "setting": "[3]; 6700 nM", "value": -0.001}, {"measurement": "level (log10)", "setting": "[3]; 20000 nM", "value": "0.045 ± 0.033"}]}, {"test system": "HDF3CGF:TIMP-2", "values": [{"measurement": "level (log10)", "setting": "[1]; 6700 nM", "value": "-0.0025 ± 0.0092"}, {"measurement": "level (log10)", "setting": "[1]; 20000 nM", "value": "-0.0035 ± 0.0021"}, {"measurement": "level (log10)", "setting": "[1]; 60000 nM", "value": "0.0025 ± 0.022"}, {"measurement": "level (log10)", "setting": "[2]; 6700 nM", "value": "-0.0075 ± 0.023"}, {"measurement": "level (log10)", "setting": "[2]; 20000 nM", "value": "-0.0015 ± 0.0035"}, {"measurement": "level (log10)", "setting": "[2]; 60000 nM", "value": "-0.0195 ± 0.0064"}, {"measurement": "level (log10)", "setting": "[3]; 6700 nM", "value": "0.0165 ± 0.011"}, {"measurement": "level (log10)", "setting": "[3]; 20000 nM", "value": "0.0055 ± 0.0064"}]}, {"test system": "CASM3C:CXCL9/MIG", "values": [{"measurement": "level (log10)", "setting": "[1]; 6700 nM", "value": "0.002 ± 0.0071"}, {"measurement": "level (log10)", "setting": "[1]; 20000 nM", "value": "0.007 ± 0.0014"}, {"measurement": "level (log10)", "setting": "[1]; 60000 nM", "value": "0.0195 ± 0.005"}, {"measurement": "level (log10)", "setting": "[2]; 6700 nM", "value": "0.004 ± 0.0028"}, {"measurement": "level (log10)", "setting": "[2]; 20000 nM", "value": "0.008 ± 0.0099"}, {"measurement": "level (log10)", "setting": "[2]; 60000 nM", "value": 0.002}, {"measurement": "level (log10)", "setting": "[3]; 6700 nM", "value": "-0.0355 ± 0.025"}, {"measurement": "level (log10)", "setting": "[3]; 20000 nM", "value": "-0.057 ± 0.042"}]}, {"test system": "CASM3C:PAI-I", "values": [{"measurement": "level (log10)", "setting": "[1]; 6700 nM", "value": "0.004 ± 0.0057"}, {"measurement": "level (log10)", "setting": "[1]; 20000 nM", "value": "-0.0005 ± 0.0064"}, {"measurement": "level (log10)", "setting": "[1]; 60000 nM", "value": "0.0045 ± 0.011"}, {"measurement": "level (log10)", "setting": "[2]; 6700 nM", "value": "-0.002 ± 0.0057"}, {"measurement": "level (log10)", "setting": "[2]; 20000 nM", "value": "-0.0035 ± 0.00071"}, {"measurement": "level (log10)", "setting": "[2]; 60000 nM", "value": "0.009 ± 0.0014"}, {"measurement": "level (log10)", "setting": "[3]; 6700 nM", "value": "0.0015 ± 0.00071"}, {"measurement": "level (log10)", "setting": "[3]; 20000 nM", "value": "0.0035 ± 0.00071"}]}]}
